Measured values reported in patent publication US20100279957A1, “PREDICTING RESPONSIVENESS TO CANCER THERAPEUTICS” (priority 2007, published 2010).
Like-named read-outs stand apart in the source and are kept apart here.

Columns and labels:
[1] = test system: NCI-60 cell line panel; parameters: key: Sensitive; Resistant; details: cited from earlier work
[2] = test system: breast cancer, advanced ovarian cancer; details: responders/patients, cited from earlier work
[3] = test system: breast cancer, advanced ovarian cancer; assay: Clinical response to single agent chemotherapy in patients (breast neoadjuvant docetaxel; ovarian salvage docetaxel, topotecan, taxol; adriamycin treated patients); assay type: in vivo, human; details: Ovarian tumor data set; responders/patients
Text: The development of a gene expression signature capable of predicting in vitro docetaxel sensitivity provides a tool that might be useful in predicting response to the drug in patients. We made use of published studies with clinical and genomic data that linked gene expression data with clinical response to docetaxel in a breast cancer neoadjuvant study^50 (FIG. 1D) to test the capacity of the in vitro docetaxel sensitivity predictor to accurately identify those patients that responded to docetaxel. […] We extended this further by predicting the response to docetaxel as salvage therapy for ovarian cancer.
Given the ability of the in vitro developed gene expression profiles to predict response to docetaxel in the clinical samples, we extended this approach to test the ability of additional signatures to predict response to commonly used salvage therapies for ovarian cancer and an independent data set of samples from adriamycin treated patients (Evans W, GSE650, GSE651). […] In each case, the positive and negative predictive values confirm the validity and clinical utility of the approach (Table 16).
Full details of the methods used for RNA extraction and development of gene expression signatures representing deregulation of oncogenic pathways in the tumor samples were recently described.^36 Response to therapy was evaluated using standard criteria for patients with measurable disease, based upon WHO guidelines.^28

## O=c1[nH]cc(F)c(=O)[nH]1 [5-FU, 5-fluorouracil]
[1]; A498, Renal
  Resistant or Sensitive (Res or Sen): Sen
[1]; COLO 205, Colon
  Resistant or Sensitive (Res or Sen): Sen
[1]; EKVX, Non-Small Cell Lung
  Resistant or Sensitive (Res or Sen): Res
[1]; HCT-116, Colon
  Resistant or Sensitive (Res or Sen): Sen
[1]; LOX IMVI, Melanoma
  Resistant or Sensitive (Res or Sen): Sen
[1]; M14, Melanoma
  Resistant or Sensitive (Res or Sen): Res
[1]; MCF7, Breast
  Resistant or Sensitive (Res or Sen): Sen
[1]; MDA-MB-435, Melanoma
  Resistant or Sensitive (Res or Sen): Res
[1]; NCI-H460, Non-Small Cell Lung
  Resistant or Sensitive (Res or Sen): Sen
[1]; NCI/ADR-RES, Ovarian
  Resistant or Sensitive (Res or Sen): Res
[1]; OVCAR-8, Ovarian
  Resistant or Sensitive (Res or Sen): Res
[1]; SK-MEL-5, Melanoma
  Resistant or Sensitive (Res or Sen): Sen
[1]; SN12C, Renal
  Resistant or Sensitive (Res or Sen): Res
[1]; SW-620, Colon
  Resistant or Sensitive (Res or Sen): Res
[1]; UO-31, Renal
  Resistant or Sensitive (Res or Sen): Sen

## COc1cccc2c1C(=O)c1c(O)c3c(c(O)c1C2=O)C[C@@](O)(C(=O)CO)C[C@@H]3O[C@H]1C[C@H](N)[C@H](O)[C@H](C)O1 [adriamycin]
[2]; Evans et al. patient data set
  Actual Overall Response: 24/122 (19.6%)

## CC(=O)O[C@@]12CO[C@@H]1C[C@H](O)[C@@]1(C)C(=O)[C@H](O)C3=C(C)[C@@H](OC(=O)[C@H](O)[C@@H](NC(=O)OC(C)(C)C)c4ccccc4)C[C@@](O)([C@@H](OC(=O)c4ccccc4)[C@H]21)C3(C)C [docetaxel]
[3]
  Actual Overall Response: 7/14 (50%)
[2]; Breast Tumor Data, neoadjuvant (Chang et al.)
  Actual Overall Response: 13/24 (54.1%)

## CC(=O)O[C@H]1C(=O)[C@@]2(C)[C@H]([C@H](OC(=O)c3ccccc3)[C@]3(O)C[C@H](OC(=O)[C@H](O)[C@@H](NC(=O)c4ccccc4)c4ccccc4)C(C)=C1C3(C)C)[C@]1(OC(C)=O)CO[C@@H]1C[C@@H]2O [taxol, paclitaxel]
[3]
  Actual Overall Response: 20/35 (57.1%)

## CC[C@@]1(O)C(=O)OCc2c1cc1n(c2=O)Cc2cc3c(CN(C)C)c(O)ccc3nc2-1 [topotecan]
[3]
  Actual Overall Response: 20/48 (41.6%)
